Source: patent US11466273B2, “Monocarboxylate transporter 4 (MCT4) antisense oligonucleotide (ASO) inhibitors for use as therapeutics in the treatment of cancer” (THE UNIVERSITY OF BRITISH COLUMBIA, priority 2015, dated 2022)
Strand notation (5' to 3'): a small letter for the sugar, then the base; units joined by * are phosphorothioate-linked, units joined directly phosphodiester-linked; [ ] holds rarer units or linkages, { } end groups; capitals alone tell only the bases. d = 2'-deoxy (DNA)

Tested on: MCT4
Test: Percent inhibition of MCT4 by MCT4 ASOs (knock-down after transfection, qPCR/Western blot)
Format: cell-based, human
Method: First-generation phosphorothioate-modified ASOs against human MCT4 were rationally designed by selecting sequences containing favourable motifs while excluding unfavourable ones (Matveeva et al., 2000). Specificity of MCT4-targeting sequences, compared to human and mouse genes (at least 3 of 20 bases mismatched), was evaluated using BLAST. Ten sequences SEQ ID No: 1, 4, 5, 9, 11, 30, 36, 37, 40 and 41 (see TABLE A) distributed throughout the length of the transcript with perfect complementarity to all human MCT4 transcript variants (NM_001042422.2, NM_001042423.2, NM_001206950.1, NM_001206951.1, NM_001206952.1, and NM_004207.3) were selected and synthesized by Eurofins MWG Operon. The knock-down efficiencies of these ten ASOs were tested by determining target mRNA and protein expression 48 hours after transfection of cells using qPCR and Western blotting. Two candidate ASOs (#1 and #14—SEQ ID NOs: 1 and 5, respectively) were selected for further studies. Sequences: ASO #1 (SEQ ID NO: 1), 5′-[…]-3′; ASO #14 (SEQ ID NO: 5), 5′-[…]-3′; a published non-targeting control ASO, 5′-[…]-3′ (Mullick et al., 2011; Samuel et al., 2006).
Cells were transfected in 6-well plates with ASOs at 100 nM for 48 hours (unless otherwise indicated) using Oligofectamine™ (Invitrogen™, Carlsbad, Calif.) or with MCT4-targeting siRNAs and controls (Dharmacon™, Chicago, Ill.) at 50 nM for 48 hours using Lipofectamine™ 2000 (Invitrogen™), following the manufacturer's instructions.
Total RNA was isolated using the RNeasy Mini Kit™ (Qiagen Inc.™, Hilden, Germany) and cDNA synthesized using the QuantiTect Reverse Transcription Kit™ (Qiagen™). Primers were designed using Primer-BLAST™. qRT-PCR reactions using KAPA SYBR Fast Universal™ (Kapa Biosystems™, Woburn, Mass.) were performed in triplicate in a ViiA 7 Real-Time PCR™ system (Applied Biosystems™, Foster City, Calif.). Target genes were normalized to a geometric average of 3 internal reference genes (Vandesompele et al., 2002).
Cells were harvested and lysed in RIPA buffer (50 mM Tris-Cl pH 7.4, 150 mM NaCl, 1% Igepal, 0.5% Na-deoxycholate, 0.1% SDS) supplemented with a complete protease inhibitor cocktail (Roche, Nutley, N.J.). The protein concentration of the lysate was determined by Pierce BCA Protein Assay™ (Thermo Scientific™, Waltham, Mass.). The lysate was run on 8% SDS polyacrylamide gel (20 ug of protein per lane) and proteins were transferred onto PVDF membrane (Millipore™, Billerica, Mass.). The blot was blocked with the Odyssey™ blocking buffer (Li-cor Biosciences™) and probed with anti-MCT4 antibody. Vinculin was used as a loading control. Following overnight incubation at 4° C., the primary antibody was probed with the corresponding secondary antibody and detected using the Odyssey Infrared Imaging System™ (Li-cor Biosciences™) and Image Studio Version 3.1™ (Li-cor Biosciences™). Densitometry analysis was done using ImageJ (U.S. National Institutes of Health, Bethesda, Md.).

[1] = Table A, ASOs transfected at 100 nM for 48 hours unless otherwise indicated

Substance | % MCT4 Inhibition [1] [%] | % MCT4 Inhibition (Table B, SEQ ID NO 1 and 16 mer truncations) [%]
1 (TCCCATGGCCAGGAGGGTTG; antisense; DNA, all phosphorothioate, methylation of C not given here; listed as Homo sapiens) [compound 1] | 65.52 | 65.52
2 (GTCCCGGAAGACGCTCAGGT; antisense; DNA, all phosphorothioate, methylation of C not given here; listed as Homo sapiens) [compound 2] | 86.33 | –
3 (AAGGACGCAGCCACCATGCC; antisense; DNA, all phosphorothioate, methylation of C not given here; listed as Homo sapiens) [compound 3] | 71.19 | –
4 (TTGGCGTAGCTCACCACGAA; antisense; DNA, all phosphorothioate, methylation of C not given here; listed as Homo sapiens) [compound 4] | 77.13 | –
5 (AGATGCAGAAGACCACGAGG; antisense; DNA, all phosphorothioate, methylation of C not given here; listed as Homo sapiens) [compound 5] | 78.16 | –
6 (CCACTCTGGAATGACACGGT; antisense; DNA, all phosphorothioate, methylation of C not given here; listed as Homo sapiens) [compound 6] | 78.67 | –
7 (GTAGGAGAAGCCAGTGATGAC; antisense; DNA, all phosphorothioate, methylation of C not given here; listed as Homo sapiens) [compound 7] | 66.31 | –
8 (AGCATGGCCAGCAGGATGGA; antisense; DNA, all phosphorothioate, methylation of C not given here; listed as Homo sapiens) [compound 8] | 80.77 | –
9 (GGCTGGAAGTTGAGTGCCAA; antisense; DNA, all phosphorothioate, methylation of C not given here; listed as Homo sapiens) [compound 9] | 76.03 | –
10 (CATGCCGTAGGAGATGCCAA; antisense; DNA, all phosphorothioate, methylation of C not given here; listed as Homo sapiens) [compound 10] | 76.51 | –
11 (CTCAGGCTGTGGCTCTTTGG; antisense; DNA, all phosphorothioate, methylation of C not given here; listed as Homo sapiens) [compound 11] | 63.01 | –
12 (TAGCGGTTCAGCATGATGA; antisense; DNA, all phosphorothioate, methylation of C not given here; listed as Homo sapiens) [compound 12] | 70.36 | –
13 (AGCACGGCCCAGCCCCAGCC; antisense; DNA, all phosphorothioate, methylation of C not given here; listed as Homo sapiens) [compound 13] | 66.85 | –
14 (GAGCTCCTTGAAGAAGACACT; antisense; DNA, all phosphorothioate, methylation of C not given here; listed as Homo sapiens) [compound 14] | 72.00 | –
15 (dC*dA*dG*dG*dA*dT*dG*dG*dA*dG*dG*dA*dG*dA*dT*dC*dC*dA*dG*dG; antisense; listed as Homo sapiens) [compound 15] | 75.58 | –
16 (dA*dG*dA*dC*dC*dC*dC*dC*dC*dA*dC*dA*dA*dG*dC*dA*dT*dG*dA*dC; antisense; listed as Homo sapiens) [compound 16] | 55.47 | –
17 (dG*dA*dA*dG*dT*dT*dG*dA*dG*dT*dG*dC*dC*dA*dA*dA*dC*dC*dC*dA*dA; antisense; listed as Homo sapiens) [compound 17] | 70.93 | –

Substance | % MCT4 Inhibition [1] [%] | % MCT4 Inhibition (Table B, SEQ ID NO 1 and 16 mer truncations) [%]
18 (dC*dC*dC*dG*dT*dT*dG*dG*dC*dC*dA*dT*dG*dG*dG*dG*dC*dG*dC*dC; antisense; listed as Homo sapiens) [compound 18] | 71.14 | –
19 (dG*dC*dC*dA*dG*dC*dC*dC*dG*dT*dT*dG*dG*dC*dC*dA*dT*dG*dG*dG; antisense; listed as Homo sapiens) [compound 19] | 80.26 | –
20 (dA*dG*dG*dA*dA*dG*dA*dC*dA*dG*dG*dG*dC*dT*dA*dC*dC*dT*dG*dC; antisense; listed as Homo sapiens) [compound 20] | 66.26 | –
21 (dG*dC*dA*dC*dA*dC*dA*dG*dG*dA*dA*dG*dA*dC*dA*dG*dG*dG*dC*dT; antisense; listed as Homo sapiens) [compound 21] | 60.36 | –
22 (dC*dA*dG*dG*dG*dC*dA*dC*dA*dC*dA*dG*dG*dA*dA*dG*dA*dC*dA*dG; antisense; listed as Homo sapiens) [compound 22] | 79.96 | –
23 (dC*dA*dG*dC*dA*dG*dT*dT*dG*dA*dG*dC*dA*dG*dC*dA*dG*dG*dC*dC; antisense; listed as Homo sapiens) [compound 23] | 65.41 | –
24 (dG*dA*dC*dC*dT*dG*dT*dC*dC*dC*dG*dT*dA*dG*dA*dG*dC*dA*dT*dG; antisense; listed as Homo sapiens) [compound 24] | 47.24 | –
25 (dT*dT*dC*dC*dC*dA*dA*dG*dC*dC*dC*dC*dG*dC*dC*dA*dC*dG*dA*dA; antisense; listed as Homo sapiens) [compound 25] | 22.88 | –
26 (dA*dA*dT*dG*dC*dT*dC*dC*dA*dC*dC*dT*dC*dC*dC*dG*dC*dA*dA*dG; antisense; listed as Homo sapiens) [compound 26] | 9.55 | –
27 (dA*dC*dC*dT*dC*dC*dC*dC*dG*dT*dT*dT*dT*dT*dC*dT*dC*dA*dG*dG; antisense; listed as Homo sapiens) [compound 27] | 3.17 | –
28 (dT*dG*dT*dG*dA*dA*dC*dC*dA*dC*dC*dT*dC*dC*dC*dC*dG*dT*dT*dT; antisense; listed as Homo sapiens) [compound 28] | 29.91 | –
29 (dT*dC*dT*dG*dT*dA*dC*dC*dT*dC*dC*dT*dC*dC*dC*dT*dG*dT*dG*dC; antisense; listed as Homo sapiens) [compound 29] | 16.31 | –
30 (dG*dA*dA*dT*dG*dA*dC*dA*dC*dG*dG*dT*dT*dC*dC*dC*dA*dC*dC*dC; antisense; listed as Homo sapiens) [compound 30] | 25.51 | –
31 (dG*dC*dC*dC*dA*dC*dC*dC*dA*dC*dC*dC*dT*dC*dC*dC*dA*dT*dT*dA; antisense; listed as Homo sapiens) [compound 31] | -43.4 | –
32 (dA*dA*dG*dA*dG*dA*dC*dC*dC*dC*dC*dC*dA*dC*dA*dA*dG*dC*dA*dT; antisense; listed as Homo sapiens) [compound 32] | 18.67 | –
33 (dC*dC*dC*dA*dC*dC*dA*dT*dG*dC*dC*dG*dT*dA*dG*dG*dA*dG*dA*dT; antisense; listed as Homo sapiens) [compound 33] | 49.00 | –
34 (dA*dG*dT*dC*dC*dA*dC*dC*dC*dC*dC*dG*dA*dG*dT*dC*dT*dG*dC*dA; antisense; listed as Homo sapiens) [compound 34] | 20.5 | –
